In ChEMBL document CHEMBL1128648, “The enantioselective synthesis and antiinflammatory activity of novel aryl-sphingolipid PKC inhibitors” (Bioorg Med Chem Lett, 1995):

Species: Canis familiaris
Assay: Inhibition of PKC-dependent neutrophil superoxide burst in dogs
Format: functional, Canis lupus familiaris
Conditions: not given

| IC50 | SMILES |
| --- | --- |
| 2.2 µM | CC(=O)O.CCCCCCCCCCC#Cc1cccc([C@@H](O)[C@@H](N)CO)c1 (stereo in doubt; 10 (-)) |
| 1 µM | CCCCCCCCCCC#Cc1csc([C@@H](O)[C@@H](N)CO)c1.O=C(O)CCC(=O)O (stereo in doubt; 19 (+)) |
| 1.5 µM | CC(=O)O.CCCCCCCCCCC#Cc1ccc([C@@H](O)[C@@H](N)CO)s1 (racemic) |
| 1.5 µM | CCCCCCCCCCC#Cc1csc([C@@H](O)[C@@H](N)CO)c1 (racemic) |

Same assay, conditions: Canis lupus familiaris

| IC50 | SMILES |
| --- | --- |
| 4.2 µM | CCCCCCCCCCCCC/C=C/[C@@H](O)[C@@H](N)CO [SPHINGOSINE] |
| 2.4 µM | CC(=O)O.CCCCCCCCCCC#Cc1cccc([C@@H](O)[C@@H](N)CO)c1 (racemic) |
| 1.3 µM | CCCCCCCCCCC#Cc1csc([C@@H](O)[C@@H](N)CO)c1.O=C(O)CCC(=O)O (stereo in doubt; 18 (-)) |
| 1.8 µM | CC(=O)O.CCCCCCCCCCC#Cc1ccc([C@@H](O)[C@@H](N)CO)s1 |

Species: Mus musculus
Assay: Anti-inflammatory activity on the mice ears using antiinflammatory assay (TPAEE)
Format: functional
Conditions: not given

| SMILES | ED50 |
| --- | --- |
| CCCCCCCCCCCCC/C=C/[C@@H](O)[C@@H](N)CO [SPHINGOSINE] | 0.31 mg ear-1 |
| CC(=O)O.CCCCCCCCCCC#Cc1cccc([C@@H](O)[C@@H](N)CO)c1 (racemic) | 0.34 mg ear-1 |
| CCCCCCCCCCC#Cc1csc([C@@H](O)[C@@H](N)CO)c1.Cl (stereo in doubt; 3a (+/-)) | 0.23 mg ear-1 |
| CC(=O)O.CCCCCCCCCCC#Cc1ccc([C@@H](O)[C@@H](N)CO)s1 (racemic) | 0.24 mg ear-1 |

Species: Mus musculus
Assay: Percent change in punch weights [right ear(received drug) -left ear(received vehicle)] was determined in mice at a dose of 1 mg/ear
Format: functional
Conditions: not given

| SMILES | Change |
| --- | --- |
| CCCCCCCCCCCCC/C=C/[C@@H](O)[C@@H](N)CO [SPHINGOSINE] | -74% |
| CC(=O)O.CCCCCCCCCCC#Cc1cccc([C@@H](O)[C@@H](N)CO)c1 (racemic) | -82% |
| CC(=O)O.CCCCCCCCCCC#Cc1cccc([C@@H](O)[C@@H](N)CO)c1 (stereo in doubt; 10 (-)) | -74% |
| CCCCCCCCCCC#Cc1csc([C@@H](O)[C@@H](N)CO)c1.O=C(O)CCC(=O)O (stereo in doubt; 19 (+)) | -63% |
| CCCCCCCCCCC#Cc1csc([C@@H](O)[C@@H](N)CO)c1.Cl (stereo in doubt; 3a (+/-)) | -81% |
| CCCCCCCCCCC#Cc1csc([C@@H](O)[C@@H](N)CO)c1.O=C(O)CCC(=O)O (stereo in doubt; 18 (-)) | -73% |
| CC(=O)O.CCCCCCCCCCC#Cc1ccc([C@@H](O)[C@@H](N)CO)s1 | -81% |

Molecular target: Protein kinase C (PKC)
Assay: Inhibition of Protein kinase C isolated from rat brain
Conditions: not given

| IC50 | SMILES |
| --- | --- |
| 19.5 µM | CC(=O)O.CCCCCCCCCCC#Cc1cccc([C@@H](O)[C@@H](N)CO)c1 (stereo in doubt; 11(+)) |
| 21.8 µM | CC(=O)O.CCCCCCCCCCC#Cc1cccc([C@@H](O)[C@@H](N)CO)c1 (stereo in doubt; 10 (-)) |
| 23 µM | CCCCCCCCCCC#Cc1csc([C@@H](O)[C@@H](N)CO)c1.O=C(O)CCC(=O)O (stereo in doubt; 19 (+)) |
| 20.1 µM | CCCCCCCCCCC#Cc1csc([C@@H](O)[C@@H](N)CO)c1.Cl (stereo in doubt; 18a) |
| 23 µM | CCCCCCCCCCC#Cc1csc([C@@H](O)[C@@H](N)CO)c1.Cl (stereo in doubt; 19a) |
| 28.8 µM | CCCCCCCCCCC#Cc1csc([C@@H](O)[C@@H](N)CO)c1.Cl (stereo in doubt; 3a (+/-)) |
| 20.1 µM | CCCCCCCCCCC#Cc1csc([C@@H](O)[C@@H](N)CO)c1.O=C(O)CCC(=O)O (stereo in doubt; 18 (-)) |
| 21.3 µM | CC(=O)O.CCCCCCCCCCC#Cc1ccc([C@@H](O)[C@@H](N)CO)s1 |
